Structures can show the parent of a compound that is named as a salt. Where two headings read alike, the source gives them in different places.
Key:
Type in all cases: biochemical
recombinant PRL-2 = biological target: T1, recombinant PRL-2 (Homo sapiens, UniProt Q12974); test: In vitro phosphatase assay (DiFMUP hydrolysis), PRL-2;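 also: PRL-2 activity read as DiFMUP hydrolysis after 20 min at room temperature with drug, enzyme first pre-reduced at 4 °C for 20 min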
T1 construct: 6xHis (N, cleaved yes); made in house; host or cells: E. coli One Shot BL21 Star
T1 sequence (Q12974 1-167): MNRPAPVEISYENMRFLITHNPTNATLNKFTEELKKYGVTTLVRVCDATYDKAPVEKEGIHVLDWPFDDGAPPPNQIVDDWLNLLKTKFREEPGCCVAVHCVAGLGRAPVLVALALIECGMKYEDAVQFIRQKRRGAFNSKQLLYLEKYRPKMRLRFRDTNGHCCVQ

recombinant PRL-3 = biological target: T2, recombinant PRL-3 (Homo sapiens, UniProt O75365); test: In vitro phosphatase assay (DiFMUP hydrolysis), PRL-3; also: test concentration or dose not given here
T2 construct: 6xHis (N, cleaved yes); made in house; host or cells: E. coli One Shot BL21 Star

recombinant PRL-1 = biological target: T3, recombinant PRL-1 (Homo sapiens, UniProt Q93096); test: In vitro phosphatase assay (DiFMUP hydrolysis), PRL-1; also: test concentration or dose not given here
T3 construct: 6xHis (N, cleaved yes); made in house; host or cells: E. coli One Shot BL21 Star
T3 sequence (Q93096 1-173): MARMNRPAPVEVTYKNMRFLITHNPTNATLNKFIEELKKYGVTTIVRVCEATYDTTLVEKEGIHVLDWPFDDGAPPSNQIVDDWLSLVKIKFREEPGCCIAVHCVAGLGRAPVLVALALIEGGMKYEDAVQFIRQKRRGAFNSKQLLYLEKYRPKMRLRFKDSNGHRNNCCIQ

[1] = FDA-approved drug screen, compared to DMSO

T2 sequence (O75365 whole entry): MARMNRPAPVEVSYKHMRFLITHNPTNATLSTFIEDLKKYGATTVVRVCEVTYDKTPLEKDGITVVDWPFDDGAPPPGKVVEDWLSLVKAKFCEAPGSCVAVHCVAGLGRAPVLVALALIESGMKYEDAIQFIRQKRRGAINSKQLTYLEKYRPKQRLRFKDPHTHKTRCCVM

| Compound | % Phosphatase Activity (compared to DMSO) PRL-2 (recombinant PRL-2; [1]) [%] | % Phosphatase Activity (compared to DMSO) PRL-3 (recombinant PRL-3; [1]) [%] | % Phosphatase Activity (compared to DMSO) PRL-1 (recombinant PRL-1; [1]) [%] | % Phosphatase Activity (compared to DMSO) PRL-2 (recombinant PRL-2) [%] | % Phosphatase Activity (compared to DMSO) PRL-3 (recombinant PRL-3) [%] | % Phosphatase Activity (compared to DMSO) PRL-1 (recombinant PRL-1) [%] |
| --- | --- | --- | --- | --- | --- | --- |
| CCCCC(=O)O[C@H]1CC[C@H]2[C@@H]3CCc4cc(O)ccc4[C@H]3CC[C@]12C [Estradiol valerate] | 99 | 85 | 103 |  |  |  |
| C[C@]12CC[C@@H]3c4ccc(O)cc4CC[C@H]3[C@@H]1CC[C@@H]2O [Estradiol] | 113 | 84 | 92 |  |  |  |
| C[C@]12CC[C@@H]3c4ccc(O)cc4CC[C@H]3[C@@H]1C[C@@H](O)[C@@H]2O [Estriol] | 111 | 79 | 117 |  |  |  |
| C[C@]12CC[C@@H]3c4ccc(O)cc4CC[C@H]3[C@@H]1CCC2=O [Estrone] | 87 | 76 | 107 |  |  |  |
| CCOc1ccc2nc3cc(N)ccc3c(N)c2c1 [Ethacridine lactate monohydrate] | 215 | 201 | 246 |  |  |  |
| CC[C@@H](CO)NCCN[C@@H](CC)CO [Ethambutol HCl] | 111 | 93 | 99 |  |  |  |
| O=S(=O)(O)c1cc(O)ccc1O [Ethamsylate] | 99 | 71 | 96 |  |  |  |
| C#C[C@]1(O)CC[C@H]2[C@@H]3CCc4cc(O)ccc4[C@H]3CC[C@@]21C [Ethinyl Estradiol] | 99 | 75 | 99 |  |  |  |
| CCc1cc(C(N)=S)ccn1 [Ethionamide] |  |  |  | 101 | 91 | 91 |
| CCC1(C)CC(=O)NC1=O (stereo not drawn) [Ethosuximide] | 104 | 79 | 95 |  |  |  |
| CCOC(=O)c1ccc(O)cc1 [Ethylparaben] | 100 | 92 | 105 |  |  |  |
| C#C[C@]1(OC(C)=O)CC[C@H]2[C@@H]3CCC4=C[C@@H](OC(C)=O)CC[C@@H]4[C@H]3CC[C@@]21C [Ethynodiol diacetate] | 112 | 88 | 93 |  |  |  |
| CC(O)(P(=O)(O)O)P(=O)(O)O [Etidronate] | 100 | 91 | 102 |  |  |  |
| CCc1cccc2c3c([nH]c12)C(CC)(CC(=O)O)OCC3 (stereo not drawn) [Etodolac] | 104 | 72 | 96 |  |  |  |
| CCOC(=O)c1cncn1[C@H](C)c1ccccc1 [Etomidate] | 91 | 79 | 98 |  |  |  |
| C#C[C@]1(O)CC[C@H]2[C@@H]3CCC4=CC(=O)CC[C@@H]4[C@H]3C(=C)C[C@@]21CC [Etonogestrel] | 85 | 80 | 90 |  |  |  |
